Experimental findings from US20260325533A1, “CDK INHIBITOR COMPOUNDS” (ALEKSIA THERAPEUTICS, INC., priority 2023, published 2026) are described below.

Common to all, as to format: biochemical
In one assay the target is CDK1/CCNB1 (Homo sapiens, UniProt P06493). Put plainly: CDK1 homogeneous time-resolved fluorescence (HTRF) kinase assay. As to conditions: CDK1/CCNB; x = IC50 >250 nM; read-out: CDK1/CCNB IC50 (>250 nM column). A digest of the protocol: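 CDK1/CCNB1 0.5 nM + cpd, 20 min 23 °C; add 1 mM ATP, 50 nM ULight-4E-BP1 peptide, 60 min 23 °C; stop 10 mM EDTA; 2 nM Eu-Ab, 60 min; HTRF 665 nm. 11-pt half-log, top 10 μM typical; IC50.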
Background: Time-resolved FRET reads energy transfer from a long-lived donor to a nearby acceptor.

Another assay concerns the target CDK4/CCND3 (Homo sapiens, UniProt P11802). Put plainly: CDK4 homogeneous time-resolved fluorescence (HTRF) kinase assay. As to conditions: CDK4/CCND; x = IC50 >250 nM; read-out: CDK4/CCND IC50 (>250 nM column). The method, boiled down: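 Inhibition of CDK4/CCND3 (1.5 nM) was measured at high ATP (1 mM) using 50 nM ULight-labelled 4E-BP1 Thr37/46 peptide; detection used 2 nM europium anti-phospho antibody after EDTA quench. IC50 values came from 11-point half-log titrations typically starting at 10 μM.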

For another assay, the target named is CDK2/CCNE1 (Homo sapiens, UniProt P24941). Put plainly: CDK2 homogeneous time-resolved fluorescence (HTRF) kinase assay. As to conditions: CDK2/CCNE. A digest of the protocol:
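Compounds were titrated 11-point, half-log from typically 10 μM against 3 nM CDK2/cyclin E1 at 1 mM ATP, with a 20 min enzyme preincubation. Phosphorylation of 50 nM ULight-4E-BP1 peptide over 60 min at 23 °C was detected by europium anti-phospho antibody TR-FRET.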

The next assay concerns the target CDK6/CCND1 (Homo sapiens, UniProt Q00534). As to the kind of experiment: CDK6 homogeneous time-resolved fluorescence (HTRF) kinase assay. As to conditions: CDK6/CCND; x = IC50 >250 nM; read-out: CDK6/CCND IC50 (>250 nM column). A digest of the protocol:
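1 nM enzyme, 1 mM ATP, 50 nM ULight-4E-BP1 (Thr37/46) peptide, 1% DMSO; 20 min compound preincubation, 60 min reaction, 23 °C. EDTA stop, 2 nM Eu-anti-phospho-4E-BP1 antibody 60 min. TR-FRET 665 nm (or 665/615 ratio); IC50 from 11-point half-log titration, top 10 μM.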

[1] abbreviates: x = IC50 25-250 nM, read-out: CDK2/CCNE IC50 (25-250 nM).
Setting [2] is: x = IC50 <25 nM, read-out: CDK2/CCNE IC50 (<25 nM).
The mark [3] stands for this setting: x = IC50 >250 nM, read-out: CDK2/CCNE IC50 (>250 nM column).

Where two headings read alike, the source gives them in different places.

Chain of CDK1/CCNB1 (P06493 whole entry): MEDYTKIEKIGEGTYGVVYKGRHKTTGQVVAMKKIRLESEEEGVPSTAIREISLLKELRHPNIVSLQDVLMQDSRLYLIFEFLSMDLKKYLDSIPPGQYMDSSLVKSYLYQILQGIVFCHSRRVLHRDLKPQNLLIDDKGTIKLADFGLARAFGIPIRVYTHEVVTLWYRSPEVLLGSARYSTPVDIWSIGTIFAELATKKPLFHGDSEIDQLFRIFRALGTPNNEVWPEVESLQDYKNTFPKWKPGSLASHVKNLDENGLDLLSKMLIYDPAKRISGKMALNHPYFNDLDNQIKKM
Chain of CDK1/CCNB1 (P14635 whole entry partner): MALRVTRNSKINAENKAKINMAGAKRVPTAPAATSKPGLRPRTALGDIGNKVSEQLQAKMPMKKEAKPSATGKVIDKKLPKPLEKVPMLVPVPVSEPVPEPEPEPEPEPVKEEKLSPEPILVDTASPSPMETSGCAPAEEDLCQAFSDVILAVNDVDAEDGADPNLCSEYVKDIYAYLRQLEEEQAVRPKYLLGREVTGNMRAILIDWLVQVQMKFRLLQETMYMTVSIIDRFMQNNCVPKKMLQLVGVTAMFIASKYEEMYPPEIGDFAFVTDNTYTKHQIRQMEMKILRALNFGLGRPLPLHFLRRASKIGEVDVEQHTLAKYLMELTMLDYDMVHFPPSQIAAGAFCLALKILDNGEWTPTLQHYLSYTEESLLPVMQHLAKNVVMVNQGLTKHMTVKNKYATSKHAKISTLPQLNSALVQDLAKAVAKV
Chain of CDK4/CCND3 (P11802 whole entry): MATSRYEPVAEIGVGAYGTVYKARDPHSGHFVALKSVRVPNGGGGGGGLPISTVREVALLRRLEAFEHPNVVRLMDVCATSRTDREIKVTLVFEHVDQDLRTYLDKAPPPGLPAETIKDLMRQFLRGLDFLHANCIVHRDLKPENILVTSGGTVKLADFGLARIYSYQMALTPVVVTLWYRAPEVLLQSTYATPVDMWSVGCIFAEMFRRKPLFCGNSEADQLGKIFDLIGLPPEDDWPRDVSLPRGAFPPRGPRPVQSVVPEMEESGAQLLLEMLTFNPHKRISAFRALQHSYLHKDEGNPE
Chain of CDK4/CCND3 (P30281 whole entry partner): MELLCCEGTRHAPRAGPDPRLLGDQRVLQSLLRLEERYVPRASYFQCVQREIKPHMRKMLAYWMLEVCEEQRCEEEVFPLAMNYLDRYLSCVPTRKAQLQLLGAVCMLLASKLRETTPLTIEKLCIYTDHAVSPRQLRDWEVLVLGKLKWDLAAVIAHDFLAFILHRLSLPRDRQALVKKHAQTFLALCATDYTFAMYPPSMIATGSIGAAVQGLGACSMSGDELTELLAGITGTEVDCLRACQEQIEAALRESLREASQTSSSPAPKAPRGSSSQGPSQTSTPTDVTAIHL
Chain of CDK6/CCND1 (Q00534 whole entry): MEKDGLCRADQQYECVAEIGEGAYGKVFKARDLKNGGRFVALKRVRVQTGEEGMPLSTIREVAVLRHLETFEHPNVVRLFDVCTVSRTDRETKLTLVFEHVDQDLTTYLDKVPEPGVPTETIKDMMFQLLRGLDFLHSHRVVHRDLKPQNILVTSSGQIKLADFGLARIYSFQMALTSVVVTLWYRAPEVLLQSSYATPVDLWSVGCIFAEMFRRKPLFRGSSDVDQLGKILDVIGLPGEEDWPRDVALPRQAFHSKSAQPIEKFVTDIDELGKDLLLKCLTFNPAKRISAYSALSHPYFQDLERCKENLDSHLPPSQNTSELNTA
Chain of CDK6/CCND1 (P24385 whole entry partner): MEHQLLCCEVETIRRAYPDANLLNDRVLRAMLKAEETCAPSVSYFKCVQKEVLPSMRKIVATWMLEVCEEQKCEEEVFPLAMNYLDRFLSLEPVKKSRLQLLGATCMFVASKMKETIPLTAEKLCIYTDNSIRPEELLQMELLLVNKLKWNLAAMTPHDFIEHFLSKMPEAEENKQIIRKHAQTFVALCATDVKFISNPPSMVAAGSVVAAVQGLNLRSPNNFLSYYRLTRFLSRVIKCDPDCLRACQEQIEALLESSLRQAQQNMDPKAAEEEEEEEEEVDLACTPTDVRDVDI

For `CS(=O)(=O)c1ccc(Nc2cc3c(C#Cc4ccc(=O)n(C(F)F)c4)nccc3cn2)cc1` [Ex 528, 1-(difluoromethyl)-5-((7-((4-(methylsulfonyl)phenyl)amino)-2,6-naphthyridin-1-yl)ethynyl)pyridin-2(1H)-one], the IC50 at CDK1/CCNB1 was greater than 250 nM; on CDK4/CCND3, greater than 250 nM; at CDK2/CCNE1 (setting [1]) it was 25 to 250 nM; on CDK6/CCND1 it was greater than 250 nM.
Consider `CS(=O)(=O)c1ccc(Nc2cc3c(C#Cc4ccnc(C(F)F)c4)nccc3cn2)cc1` [Ex 529, 5-((2-(difluoromethyl)pyridin-4-yl)ethynyl)-N-(4-(methylsulfonyl)phenyl)-2,6-naphthyridin-3-amine], for which the IC50 at CDK1/CCNB1 was greater than 250 nM; at CDK4/CCND3, greater than 250 nM; on CDK2/CCNE1 (setting [1]), 25 to 250 nM; at CDK6/CCND1 it was greater than 250 nM.
On to `CS(=O)(=O)c1ccc(Nc2cc3c(C#Cc4ccc(Cl)c(F)c4N)nccc3cn2)cc1` [Ex 530, 5-((2-amino-4-chloro-3-fluorophenyl)ethynyl)-N-(4-(methylsulfonyl)phenyl)-2,6-naphthyridin-3-amine], for which the IC50 on CDK1/CCNB1 is greater than 250 nM; at CDK4/CCND3 it was greater than 250 nM; at CDK2/CCNE1 (setting [1]), 25 to 250 nM; on CDK6/CCND1, greater than 250 nM.
As to `CS(=O)(=O)c1ccc(Nc2cc3c(C#Cc4n[nH]c5c4CCC5)nccc3cn2)cc1` [Ex 531, N-(4-(methylsulfonyl)phenyl)-5-((1,4,5,6-tetrahydrocyclopenta[c]pyrazol-3-yl)ethynyl)-2,6-naphthyridin-3-amine], the IC50 at CDK1/CCNB1 was greater than 250 nM; at CDK4/CCND3, greater than 250 nM; at CDK2/CCNE1 (setting [1]) it was 25 to 250 nM; at CDK6/CCND1, greater than 250 nM.
With `CS(=O)(=O)c1ccc(Nc2cc3c(C#Cc4ccc5c(C#N)c[nH]c5c4)nccc3cn2)cc1` [Ex 532, 6-((7-((4-(methylsulfonyl)phenyl)amino)-2,6-naphthyridin-1-yl)ethynyl)-1H-indole-3-carbonitrile], the IC50 on CDK1/CCNB1 is greater than 250 nM; on CDK4/CCND3, greater than 250 nM; at CDK2/CCNE1 (setting [1]), 25 to 250 nM; at CDK6/CCND1, greater than 250 nM.
Turning to `CS(=O)(=O)c1ccc(Nc2cc3c(C#Cc4cc(CO)cnc4N)nccc3cn2)cc1` [Ex 533, (6-amino-5-((7-((4-(methylsulfonyl)phenyl)amino)-2,6-naphthyridin-1-yl)ethynyl)pyridin-3-yl)methanol], the IC50 on CDK1/CCNB1 was greater than 250 nM; on CDK4/CCND3 it was greater than 250 nM; on CDK2/CCNE1 (setting [1]), 25 to 250 nM; at CDK6/CCND1, greater than 250 nM.
Turning to `CS(=O)(=O)c1ccc(Nc2cc3c(C#Cc4cnc(N)c(OC(F)F)c4)nccc3cn2)cc1` [Ex 534, 5-((6-amino-5-(difluoromethoxy)pyridin-3-yl)ethynyl)-N-(4-(methylsulfonyl)phenyl)-2,6-naphthyridin-3-amine], the IC50 on CDK1/CCNB1 was greater than 250 nM; at CDK4/CCND3, greater than 250 nM; on CDK2/CCNE1 (setting [1]), 25 to 250 nM; on CDK6/CCND1 it was greater than 250 nM.
`CS(=O)(=O)c1ccc(Nc2cc3c(C#Cc4cccc5ncnn45)nccc3cn2)cc1` [Ex 535, 5-([1,2,4]triazolo[1,5-a]pyridin-5-ylethynyl)-N-(4-(methylsulfonyl)phenyl)-2,6-naphthyridin-3-amine]: the IC50 on CDK1/CCNB1 is greater than 250 nM; on CDK4/CCND3, greater than 250 nM; on CDK2/CCNE1 (setting [1]), 25 to 250 nM; on CDK6/CCND1 it was greater than 250 nM.
With `CS(=O)(=O)c1ccc(Nc2cc3c(C#Cc4cnc(C#N)c(N)c4)nccc3cn2)cc1` [Ex 536, 3-amino-5-((7-((4-(methylsulfonyl)phenyl)amino)-2,6-naphthyridin-1-yl)ethynyl)picolinonitrile], the IC50 on CDK1/CCNB1 is greater than 250 nM; on CDK4/CCND3 it was greater than 250 nM; on CDK2/CCNE1 (setting [1]) it was 25 to 250 nM; at CDK6/CCND1, greater than 250 nM.
`CS(=O)(=O)c1ccc(Nc2cc3c(C#Cc4cnncc4N)nccc3cn2)cc1` [Ex 537, 5-((5-aminopyridazin-4-yl)ethynyl)-N-(4-(methylsulfonyl)phenyl)-2,6-naphthyridin-3-amine]: the IC50 at CDK1/CCNB1 was greater than 250 nM; at CDK4/CCND3 it was greater than 250 nM; at CDK2/CCNE1 (setting [2]) it was less than 25 nM; on CDK6/CCND1, greater than 250 nM.
As to `CN(C)c1ncc(C#Cc2nccc3cnc(Nc4ccc(S(C)(=O)=O)cc4)cc23)cn1` [Ex 538, 5-((2-(dimethylamino)pyrimidin-5-yl)ethynyl)-N-(4-(methylsulfonyl)phenyl)-2,6-naphthyridin-3-amine], the IC50 is greater than 250 nM at CDK1/CCNB1, greater than 250 nM at CDK4/CCND3, 25 to 250 nM at CDK2/CCNE1 (setting [1]) and greater than 250 nM on CDK6/CCND1.
Turning to `CS(=O)(=O)c1ccc(Nc2cc3c(C#Cc4ccc(OC(F)F)nc4)nccc3cn2)cc1` [Ex 539, 5-((6-(difluoromethoxy)pyridin-3-yl)ethynyl)-N-(4-(methylsulfonyl)phenyl)-2,6-naphthyridin-3-amine], the IC50 was greater than 250 nM on CDK1/CCNB1, greater than 250 nM on CDK4/CCND3, 25 to 250 nM at CDK2/CCNE1 (setting [1]) and greater than 250 nM at CDK6/CCND1.
Take `Cc1nc(C#Cc2nccc3cnc(Nc4ccc(S(C)(=O)=O)cc4)cc23)sc1C` [Ex 540, 5-((4,5-dimethylthiazol-2-yl)ethynyl)-N-(4-(methylsulfonyl)phenyl)-2,6-naphthyridin-3-amine]: the IC50 on CDK1/CCNB1, at CDK4/CCND3, on CDK2/CCNE1 (setting [3]) and on CDK6/CCND1 was greater than 250 nM each time.
As for `Cc1nc(N)nc(C)c1C#Cc1nccc2cnc(Nc3ccc(S(C)(=O)=O)cc3)cc12` [Ex 541, 5-((2-amino-4,6-dimethylpyrimidin-5-yl)ethynyl)-N-(4-(methylsulfonyl)phenyl)-2,6-naphthyridin-3-amine], the IC50 at CDK1/CCNB1 is greater than 250 nM; at CDK4/CCND3 it was greater than 250 nM; at CDK2/CCNE1 (setting [1]) it was 25 to 250 nM; on CDK6/CCND1, greater than 250 nM.
On to `CC(C)(O)c1nc2ccc(C#Cc3nccc4cnc(Nc5ccc(S(C)(=O)=O)cc5)cc34)cc2[nH]1` [Ex 542, 2-(6-((7-((4-(methylsulfonyl)phenyl)amino)-2,6-naphthyridin-1-yl)ethynyl)-1H-benzo[d]imidazol-2-yl)propan-2-ol], for which the IC50 is greater than 250 nM on CDK1/CCNB1, greater than 250 nM on CDK4/CCND3, less than 25 nM at CDK2/CCNE1 (setting [2]) and greater than 250 nM on CDK6/CCND1.
With `CC(C)(O)Cn1cnc2ccc(C#Cc3nccc4cnc(Nc5ccc(S(C)(=O)=O)cc5)cc34)cc21` [Ex 543, 2-methyl-1-(6-((7-((4-(methylsulfonyl)phenyl)amino)-2,6-naphthyridin-1-yl)ethynyl)-1H-benzo[d]imidazol-1-yl)propan-2-ol], the IC50 on CDK1/CCNB1, at CDK4/CCND3, on CDK2/CCNE1 (setting [3]) and at CDK6/CCND1 was greater than 250 nM each time.
For `CNc1ccncc1C#Cc1nccc2cnc(Nc3ccc(S(C)(=O)=O)cc3)cc12` [Ex 547, 5-((4-(methylamino)pyridin-3-yl)ethynyl)-N-(4-(methylsulfonyl)phenyl)-2,6-naphthyridin-3-amine], the IC50 at CDK1/CCNB1, at CDK4/CCND3, at CDK2/CCNE1 (setting [3]) and on CDK6/CCND1 was greater than 250 nM each time.
On to `CS(=O)(=O)c1ccc(Nc2cc3c(C#Cc4ccnc5[nH]ncc45)nccc3cn2)cc1` [Ex 548, 5-((1H-pyrazolo[3,4-b]pyridin-4-yl)ethynyl)-N-(4-(methylsulfonyl)phenyl)-2,6-naphthyridin-3-amine], for which the IC50 at CDK1/CCNB1 was greater than 250 nM; on CDK4/CCND3, greater than 250 nM; on CDK2/CCNE1 (setting [1]) it was 25 to 250 nM; at CDK6/CCND1 it was greater than 250 nM.
